Drawing on ChEMBL document CHEMBL1145844 (J Med Chem, 2003), this text covers Ki, Stimulation and EC50 for eight compounds.

pEC50, pKi: −log10 of the molar value.

For experiment [1], the target named is Opioid receptors; delta & kappa (Homo sapiens, UniProt P41145+P41143). Briefly: Ratio of kappa/delta-opioid receptors Binding affinity. It is filed as protein assay.
Experiment [2] concerns the target T1, Kappa-type opioid receptor (Homo sapiens, UniProt P41145). Briefly: % stimulation of [35S]GTP-gamma-S, binding of compound in recombinant human Opioid receptor kappa 1 transfected into CHO cells. It is filed as functional, cell-based.
Experiment [3] concerns the target T2, Mu-type opioid receptor (Homo sapiens, UniProt P35372). Description: Binding affinity for human Opioid receptor mu 1 transfected into chinese hamster ovary cells by displacing [3H]DAMGO radioligand. It is filed as cell-based.
Experiment [4] has as its target T3, Delta-type opioid receptor (Homo sapiens, UniProt P41143). Description: Binding affinity for human Opioid receptor delta 1 transfected into chinese hamster ovary cells by displacing [3H]CI-DPDPE radioligand. It is filed as cell-based.
Experiment [5] addresses T2, Mu-type opioid receptor. Description: % stimulation of [35S]GTP-gamma-S, binding in recombinant human Opioid receptor mu 1 transfected into CHO cells. It is filed as functional, cell-based.
Experiment [6] concerns the target T1, Kappa-type opioid receptor. Briefly: Agonistic activity towards opioid receptor kappa 1. It is filed as functional.
Experiment [7] has as its target T1, Kappa-type opioid receptor. Briefly: Binding affinity in recombinant human Opioid receptor kappa 1 transfected into chinese hamster ovary cells by displacing [3H]U-69593 radioligand. It is filed as cell-based.
Experiment [8] deals with T3, Delta-type opioid receptor. Description: Agonistic activity towards Opioid receptor delta 1. It is filed as functional.
For experiment [9], the target named is Opioid receptors; mu & delta (Homo sapiens, UniProt P41143+P35372). Description: Ratio of mu/delta-opioid receptors Binding affinity. It is filed as protein assay.
Experiment [10] deals with T2, Mu-type opioid receptor. Description: Effective concentration agonistic activity towards Opioid receptor mu 1. It is filed as functional.
In experiment [11] the target is T1, Kappa-type opioid receptor. Description: Agonistic activity towards Opioid receptor kappa 1. It is filed as functional.
The target in experiment [12] is T3, Delta-type opioid receptor. Briefly: % stimulation of [35S]GTP-gamma-S, binding in recombinant human Opioid receptor delta 1 transfected into CHO cells. It is filed as functional, cell-based. Background: Binding of GTPγS marks nucleotide exchange on a G protein.

T1 sequence (P41145 whole entry): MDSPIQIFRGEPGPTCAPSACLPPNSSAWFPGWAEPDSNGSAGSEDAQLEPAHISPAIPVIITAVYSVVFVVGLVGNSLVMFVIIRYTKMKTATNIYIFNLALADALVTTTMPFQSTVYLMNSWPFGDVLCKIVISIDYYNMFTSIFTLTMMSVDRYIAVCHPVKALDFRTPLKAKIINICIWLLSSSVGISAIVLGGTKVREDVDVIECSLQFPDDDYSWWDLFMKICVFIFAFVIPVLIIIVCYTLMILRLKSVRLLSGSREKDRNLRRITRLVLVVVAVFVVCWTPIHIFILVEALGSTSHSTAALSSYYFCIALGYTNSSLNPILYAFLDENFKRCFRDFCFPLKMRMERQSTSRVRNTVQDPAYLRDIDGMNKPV
T2 sequence (P35372 whole entry): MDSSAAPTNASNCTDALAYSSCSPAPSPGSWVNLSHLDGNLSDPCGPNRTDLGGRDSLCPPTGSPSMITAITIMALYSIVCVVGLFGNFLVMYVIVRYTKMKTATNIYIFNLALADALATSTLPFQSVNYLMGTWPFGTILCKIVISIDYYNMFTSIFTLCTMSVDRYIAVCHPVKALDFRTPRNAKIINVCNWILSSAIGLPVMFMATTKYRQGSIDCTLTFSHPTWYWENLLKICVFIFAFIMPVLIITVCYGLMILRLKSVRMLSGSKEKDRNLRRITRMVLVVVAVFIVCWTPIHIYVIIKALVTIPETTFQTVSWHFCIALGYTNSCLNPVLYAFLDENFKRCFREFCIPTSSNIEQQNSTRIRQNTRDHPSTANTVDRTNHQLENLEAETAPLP
T3 sequence (P41143 whole entry): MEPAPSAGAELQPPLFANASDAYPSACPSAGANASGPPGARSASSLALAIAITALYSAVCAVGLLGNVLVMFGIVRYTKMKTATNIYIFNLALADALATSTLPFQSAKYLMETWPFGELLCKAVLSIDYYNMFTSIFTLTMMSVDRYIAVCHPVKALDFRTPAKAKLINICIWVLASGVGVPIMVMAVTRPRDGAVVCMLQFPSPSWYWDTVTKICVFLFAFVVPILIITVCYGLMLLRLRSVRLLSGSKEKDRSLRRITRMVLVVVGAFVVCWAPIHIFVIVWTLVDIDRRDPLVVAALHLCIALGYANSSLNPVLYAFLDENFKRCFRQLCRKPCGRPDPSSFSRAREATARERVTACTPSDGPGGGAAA

With `C/C=C1\C[C@@]23Cc4c([nH]c5ccccc45)[C@@H]1[C@@]21CCN(C)C3Cc2ccc(OC)c(O)c21`, the Ki is reported as 2.9 in [1] and 1.5 in experiment [9]. Also, the Stimulation in experiment [2] worked out at 36%; in experiment [5] it was 41%. Besides, the pKi (usually −log10 of the Ki, conventionally taken in molar units) in [3] is 6.91; in [4], 7.08; in experiment [7], 6.62. The pEC50 (as a rule, −log10 of the EC50, conventionally taken in molar units) in experiment [6] was 5.66; in experiment [8], 6.66; in [10], 5.78.

Turning to `COc1ccc2c(c1O)[C@]13CCN(C)C(C2)[C@@]12CC(=C(C)C)[C@@H]3c1[nH]c3ccccc3c1C2`, the values for the Ki in experiment [1] and in experiment [9] were 0.3 and 3.2, respectively. Moreover, the Stimulation in [2] stood at 44%; in experiment [5], 52%. The pKi was 6.48 in experiment [3], 6.99 in experiment [4] and 7.55 in [7]. The pEC50 in experiment [11] is 6.06; in [8], 6.68; in experiment [10], 5.99.

In the case of `COc1ccc2c(c1O)[C@]13CCN(C)C(C2)[C@@]12C/C(=C\c1ccccc1)[C@@H]3c1[nH]c3ccccc3c1C2`, the Ki was determined as 2.2 in experiment [1] and 0.4 in experiment [9]. Also, the Stimulation was 83% in [2], 110% in experiment [5] and 87% in [12]. The pKi in [3] was 8.20; in experiment [4], 7.80; in experiment [7] it was 7.46. The pEC50 was 6.49 in experiment [11], 7.37 in experiment [8] and 7.35 in [10].

Turning to `CC(C)=CC[C@@]12Cc3c([nH]c4ccccc34)[C@]3(C)Oc4c(O)ccc5c4[C@]13CCN(C)C2C5`, the values for the Ki in [1] and in experiment [9] were 8.6 and 4.9, respectively. Further, the Stimulation in experiment [2] was 31%; in [5], 72%; in experiment [12], 43%. Further, the negative-log Ki (pKi) is 6.60 in experiment [3], 7.29 in experiment [4] and 6.36 in [7]. Moreover, the pEC50 in experiment [11] is 6.02; in experiment [8], 7.05; in [10], 5.92.

As to `CN1CC[C@]23c4c5ccc(O)c4O[C@@]2(C)c2[nH]c4ccccc4c2C[C@@]3(C/C=C/c2ccccc2)C1C5`, the Ki in [1] was 7.5; in experiment [9], 3.5. The Stimulation in experiment [2] was determined as 60%; in experiment [5], 85%; in [12], 79%. The pKi in experiment [3] was 7.36; in experiment [4] it was 7.90; in experiment [7], 7.03. The pEC50 in [11] is 5.69; in experiment [8], 7.66; in [10], 6.09.

For the compound `COc1ccc2c(c1O)[C@]13CCN(C)C(C2)[C@]12CCC(=O)[C@H]3/C(=C/c1ccccc1)C2`, the values for the Ki in [1] and in [9] were 0.04 and 0.08, respectively. The Stimulation in experiment [2] amounted to 85%; in [5], 123%; in experiment [12], 80%. For the same compound, the results for the pKi in experiment [3], in experiment [4] and in experiment [7] were 9.37, 8.26 and 9.70, respectively. Further, the results for the pEC50 in [11], in experiment [8] and in experiment [10] were 7.76, 8.38 and 8.17, respectively.

Take `COc1ccc2c(c1O)[C@]13CCN(C)C(C2)[C@@]12C/C(=C(/C)c1ccccc1)[C@@H]3c1[nH]c3ccccc3c1C2`: the results for the Ki in experiment [1] and in [9] were 0.03 and 0.6, respectively. Besides, the Stimulation worked out at 97% in experiment [2], 144% in experiment [5] and 168% in experiment [12]. The pKi is 7.87 in experiment [3], 7.63 in experiment [4] and 9.21 in experiment [7]. Besides, the pEC50 in experiment [11] was 7.08; in [8] it was 6.43; in [10] it was 6.86.

For `COc1ccc2c(c1O)[C@]13CCN(C)C(C2)[C@]12CCC(=O)[C@H]3/C(=C(\C)c1ccccc1)C2`, the figures for the Ki in experiment [1] and in experiment [9] were 0.02 and 0.8, respectively. The Stimulation in [2] worked out at 116%; in experiment [5] it was 108%; in [12], 108%. Further, the pKi in experiment [3] is 8.34; in experiment [4] it was 8.25; in [7] it was 9.85. Also, the pEC50 in [11] is 8.47; in [8] it was 7.14; in experiment [10] it was 7.82.
